In paper PMC6499206, “Quantification of Volatile Metabolites Derived From Garlic (Allium sativum) in Human Urine” (Frontiers in Nutrition, 2019):

Assay: Quantification of garlic-derived metabolites in human urine after ingestion of 3 g raw garlic (SIDA, SAFE, HRGC-MS / HRGC-GC-MS)
Type: in vivo
Settings: for metabolite concentration in urine / metabolite concentration in urine, creatinine-normalized: 3 g raw garlic
Outline: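 Quantification used stable isotope dilution (²H3-AMS, -AMSO, -AMSO2 standards), SAFE distillation at 50°C of DCM-treated urine, and GC-MS on a DB-FFAP column, with creatinine from the Jaffé reaction at 492 nm. Urine came from 18 volunteers avoiding sulfur-rich foods, sampled before and up to 24 h after eating 3 g raw garlic.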

C=CCS(C)(=O)=O [AMSO2, allyl methyl sulfone]
concentration in urine compared with human milk (3 g raw garlic in both studies, milk data ref 20): about twice as high | metabolite concentration in urine (U I, 0.5 h post (0.55 h)): 41.7 µg/kg | metabolite concentration in urine, creatinine-normalized (U I, 0.5 h post (0.55 h)): 5.8 µg/mmol creatinine | metabolite concentration in urine (U I, 1 h post (1.03 h)): 98.5 µg/kg | metabolite concentration in urine, creatinine-normalized (U I, 1 h post (1.03 h)): 106.3 µg/mmol creatinine | metabolite concentration in urine (U I, 2 h post (2.05 h)): 138.8 µg/kg | metabolite concentration in urine, creatinine-normalized (U I, 2 h post (2.05 h)): 68.4 µg/mmol creatinine | metabolite concentration in urine (U I, 4 h post (4.05 h)): 172.3 µg/kg | metabolite concentration in urine, creatinine-normalized (U I, 4 h post (4.05 h)): 19.6 µg/mmol creatinine | metabolite concentration in urine (U I, 6 h post (6.05 h)): 170.7 µg/kg | metabolite concentration in urine, creatinine-normalized (U I, 6 h post (6.05 h)): 18.6 µg/mmol creatinine | metabolite concentration in urine (U I, 8 h post (8.05 h)): 119.9 µg/kg | metabolite concentration in urine, creatinine-normalized (U I, 8 h post (8.05 h)): 16.3 µg/mmol creatinine | metabolite concentration in urine (U I, 24 h post (25.55 h)): 5.6 µg/kg | metabolite concentration in urine, creatinine-normalized (U I, 24 h post (25.55 h)): 0.9 µg/mmol creatinine | metabolite concentration in urine (U I, pre (-0.03 h)): < LOD^3 | metabolite concentration in urine, creatinine-normalized (U I, pre (-0.03 h)): < LOD^3 | metabolite concentration in urine (U II, 0.5 h post (0.50 h)): 32.4 µg/kg | metabolite concentration in urine, creatinine-normalized (U II, 0.5 h post (0.50 h)): 3.0 µg/mmol creatinine | metabolite concentration in urine (U II, 1 h post (1.00 h)): 68.0 µg/kg | metabolite concentration in urine, creatinine-normalized (U II, 1 h post (1.00 h)): 26.1 µg/mmol creatinine | metabolite concentration in urine (U II, 2 h post (2.00 h)): 62.1 µg/kg | metabolite concentration in urine, creatinine-normalized (U II, 2 h post (2.00 h)): 61.0 µg/mmol creatinine | metabolite concentration in urine (U II, 4 h post (4.00 h)): 75.1 µg/kg | metabolite concentration in urine, creatinine-normalized (U II, 4 h post (4.00 h)): 13.8 µg/mmol creatinine | metabolite concentration in urine (U II, 6 h post (6.00 h)): 61.7 µg/kg | metabolite concentration in urine, creatinine-normalized (U II, 6 h post (6.00 h)): 6.8 µg/mmol creatinine | metabolite concentration in urine (U II, 8 h post (8.00 h)): 41.3 µg/kg | metabolite concentration in urine, creatinine-normalized (U II, 8 h post (8.00 h)): 4.9 µg/mmol creatinine | metabolite concentration in urine (U II, 24 h post (24.12 h)): 1.9 µg/kg | metabolite concentration in urine, creatinine-normalized (U II, 24 h post (24.12 h)): 0.1 µg/mmol creatinine | metabolite concentration in urine (U II, pre (-0.13 h)): < LOD^3 | metabolite concentration in urine, creatinine-normalized (U II, pre (-0.13 h)): < LOD^3 | metabolite concentration in urine (U III, 0.5 h post (0.53 h)): 41.9 µg/kg | metabolite concentration in urine, creatinine-normalized (U III, 0.5 h post (0.53 h)): 24.9 µg/mmol creatinine | metabolite concentration in urine (U III, 1 h post (1.07 h)): 83.3 µg/kg | metabolite concentration in urine, creatinine-normalized (U III, 1 h post (1.07 h)): 117.5 µg/mmol creatinine | metabolite concentration in urine (U III, 2 h post (2.18 h)): 145.2 µg/kg | metabolite concentration in urine, creatinine-normalized (U III, 2 h post (2.18 h)): 89.7 µg/mmol creatinine | metabolite concentration in urine (U III, 4 h post (4.35 h)): 168.2 µg/kg | metabolite concentration in urine, creatinine-normalized (U III, 4 h post (4.35 h)): 63.4 µg/mmol creatinine | metabolite concentration in urine (U III, 6 h post (6.35 h)): 134.9 µg/kg | metabolite concentration in urine, creatinine-normalized (U III, 6 h post (6.35 h)): 26.1 µg/mmol creatinine | metabolite concentration in urine (U III, 8 h post (8.43 h)): 86.7 µg/kg | metabolite concentration in urine, creatinine-normalized (U III, 8 h post (8.43 h)): 15.3 µg/mmol creatinine | metabolite concentration in urine (U III, 24 h post (23.90 h)): 5.6 µg/kg | metabolite concentration in urine, creatinine-normalized (U III, 24 h post (23.90 h)): 0.9 µg/mmol creatinine | metabolite concentration in urine (U III, pre (-0.03 h)): 7.3 µg/kg | metabolite concentration in urine, creatinine-normalized (U III, pre (-0.03 h)): 1.3 µg/mmol creatinine | metabolite concentration in urine (U IV, 0.5 h post (0.55 h)): 31.0 µg/kg | metabolite concentration in urine, creatinine-normalized (U IV, 0.5 h post (0.55 h)): 6.6 µg/mmol creatinine | metabolite concentration in urine (U IV, 1 h post (1.05 h)): 63.2 µg/kg | metabolite concentration in urine, creatinine-normalized (U IV, 1 h post (1.05 h)): 52.7 µg/mmol creatinine | metabolite concentration in urine (U IV, 2 h post (2.12 h)): 82.8 µg/kg | metabolite concentration in urine, creatinine-normalized (U IV, 2 h post (2.12 h)): 52.5 µg/mmol creatinine | metabolite concentration in urine (U IV, 4 h post (4.05 h)): 108.4 µg/kg | metabolite concentration in urine, creatinine-normalized (U IV, 4 h post (4.05 h)): 22.3 µg/mmol creatinine | metabolite concentration in urine (U IV, 6 h post (6.08 h)): 96.7 µg/kg | metabolite concentration in urine, creatinine-normalized (U IV, 6 h post (6.08 h)): 6.9 µg/mmol creatinine | metabolite concentration in urine (U IV, 8 h post (8.05 h)): 73.4 µg/kg | metabolite concentration in urine, creatinine-normalized (U IV, 8 h post (8.05 h)): 15.4 µg/mmol creatinine | metabolite concentration in urine (U IV, 24 h post (24.03 h)): 6.8 µg/kg | metabolite concentration in urine, creatinine-normalized (U IV, 24 h post (24.03 h)): 0.7 µg/mmol creatinine | metabolite concentration in urine (U IV, pre (-0.05 h)): < LOD^3 | metabolite concentration in urine, creatinine-normalized (U IV, pre (-0.05 h)): < LOD^3 | metabolite concentration in urine (U IX, 0.5 h post (0.67 h)): 54.8 µg/kg | metabolite concentration in urine, creatinine-normalized (U IX, 0.5 h post (0.67 h)): 52.1 µg/mmol creatinine | metabolite concentration in urine (U IX, 1 h post (1.17 h)): 161.7 µg/kg | metabolite concentration in urine, creatinine-normalized (U IX, 1 h post (1.17 h)): 167.7 µg/mmol creatinine | metabolite concentration in urine (U IX, 2 h post (1.83 h)): 248.6 µg/kg | metabolite concentration in urine, creatinine-normalized (U IX, 2 h post (1.83 h)): 236.2 µg/mmol creatinine | metabolite concentration in urine (U IX, 4 h post (4.17 h)): 367.0 µg/kg | metabolite concentration in urine, creatinine-normalized (U IX, 4 h post (4.17 h)): 70.5 µg/mmol creatinine | metabolite concentration in urine (U IX, 6 h post (6.08 h)): 343.5 µg/kg | metabolite concentration in urine, creatinine-normalized (U IX, 6 h post (6.08 h)): 107.8 µg/mmol creatinine | metabolite concentration in urine (U IX, 8 h post (8.08 h)): 269.3 µg/kg | metabolite concentration in urine, creatinine-normalized (U IX, 8 h post (8.08 h)): 19.2 µg/mmol creatinine | metabolite concentration in urine (U IX, 24 h post (24.00 h)): 5.9 µg/kg | metabolite concentration in urine, creatinine-normalized (U IX, 24 h post (24.00 h)): 0.7 µg/mmol creatinine | metabolite concentration in urine (U IX, pre (-0.08 h)): < LOD^3 | metabolite concentration in urine, creatinine-normalized (U IX, pre (-0.08 h)): < LOD^3 | metabolite concentration in urine (U V, 0.5 h post (0.50 h)): 33.9 µg/kg | metabolite concentration in urine, creatinine-normalized (U V, 0.5 h post (0.50 h)): 49.6 µg/mmol creatinine | metabolite concentration in urine (U V, 1 h post (1.00 h)): 80.4 µg/kg | metabolite concentration in urine, creatinine-normalized (U V, 1 h post (1.00 h)): 96.0 µg/mmol creatinine | metabolite concentration in urine (U V, 2 h post (2.00 h)): 111.3 µg/kg | metabolite concentration in urine, creatinine-normalized (U V, 2 h post (2.00 h)): 132.8 µg/mmol creatinine | metabolite concentration in urine (U V, 4 h post (4.00 h)): 142.9 µg/kg | metabolite concentration in urine, creatinine-normalized (U V, 4 h post (4.00 h)): 46.1 µg/mmol creatinine | metabolite concentration in urine (U V, 6 h post (6.00 h)): 151.3 µg/kg | metabolite concentration in urine, creatinine-normalized (U V, 6 h post (6.00 h)): 30.1 µg/mmol creatinine | metabolite concentration in urine (U V, 8 h post (8.00 h)): 99.4 µg/kg | metabolite concentration in urine, creatinine-normalized (U V, 8 h post (8.00 h)): 45.8 µg/mmol creatinine | metabolite concentration in urine (U V, 24 h post (24.00 h)): 5.1 µg/kg | metabolite concentration in urine, creatinine-normalized (U V, 24 h post (24.00 h)): 0.9 µg/mmol creatinine | metabolite concentration in urine (U V, pre (-0.05 h)): < LOD^3 | metabolite concentration in urine, creatinine-normalized (U V, pre (-0.05 h)): < LOD^3 | metabolite concentration in urine (U VI, 0.5 h post (0.50 h)): 74.1 µg/kg | metabolite concentration in urine, creatinine-normalized (U VI, 0.5 h post (0.50 h)): 33.9 µg/mmol creatinine | metabolite concentration in urine (U VI, 1 h post (1.00 h)): 87.6 µg/kg | metabolite concentration in urine, creatinine-normalized (U VI, 1 h post (1.00 h)): 73.1 µg/mmol creatinine | metabolite concentration in urine (U VI, 2 h post (2.00 h)): 136.6 µg/kg | metabolite concentration in urine, creatinine-normalized (U VI, 2 h post (2.00 h)): 123.2 µg/mmol creatinine | metabolite concentration in urine (U VI, 4 h post (4.00 h)): 150.1 µg/kg | metabolite concentration in urine, creatinine-normalized (U VI, 4 h post (4.00 h)): 43.2 µg/mmol creatinine | metabolite concentration in urine (U VI, 6 h post (6.00 h)): 147.1 µg/kg | metabolite concentration in urine, creatinine-normalized (U VI, 6 h post (6.00 h)): 27.1 µg/mmol creatinine | metabolite concentration in urine (U VI, 8 h post (8.00 h)): 106.7 µg/kg | metabolite concentration in urine, creatinine-normalized (U VI, 8 h post (8.00 h)): 21.2 µg/mmol creatinine | metabolite concentration in urine (U VI, 24 h post (24.17 h)): 9.2 µg/kg | metabolite concentration in urine, creatinine-normalized (U VI, 24 h post (24.17 h)): 0.6 µg/mmol creatinine | metabolite concentration in urine (U VI, pre (-0.05 h)): < LOD^3 | metabolite concentration in urine, creatinine-normalized (U VI, pre (-0.05 h)): < LOD^3 | metabolite concentration in urine (U VII, 0.5 h post (0.50 h)): 44.1 µg/kg | metabolite concentration in urine, creatinine-normalized (U VII, 0.5 h post (0.50 h)): 41.3 µg/mmol creatinine
